The text below walks through data of patent US10626349B2, “Cleavable surfactants” (PROMEGA CORPORATION, priority 2007, dated 2020).

Data set [1] can be described thus: Acid and thermal degradation of the surfactant.
Data set [2] concerns the target T1, Myoglobin from horse heart digested with trypsin (Equus caballus, UniProt P68082).
T1 construct: Myoglobin from horse heart; from tissue; host or cells: horse heart
The data set can be described thus: Myoglobin/Trypsin digest, HPLC peak area versus RapiGest control. It is filed as biochemical. Conditions: 0.01% surfactant, trypsin 50:1, 20 minutes at 37° C.; ratio to RapiGest control, >1 = more digestion. The protocol:
Myoglobin from horse heart (typically 25 μs) was digested with trypsin (Promega) at a 50:1 ratio in a volume of 125 μL (typical) of 50 mM Ammonium bicarbonate for 20 minutes at 37° C. with 0.01% RapiGest™ surfactant or 0.01% of the indicated compound of the invention (upper and lower chromatograms, respectively). TFA was added to 0.5-2% and the mixtures were incubated at 37° C. or 65° C. for 20 or 30 minutes. Degraded surfactant was removed by centrifugation at 14,000×g for 5 minutes. HPLC analysis was performed on a 25-50 μL reaction sample using an HP1050 LC system with an Agilent Sorbax SB-C18 column (3.0×100 mm, 3.5 micron) and a gradient of 0.1% TFA (97.5% initial) and Acetonitrile, 0.01% TFA (55% final condition followed by a 100% wash step) and a flow rate of 0.75 mL/min. Peptides were detected at 214 and 280 nm.
(§1) For each compound numbered below in Example 12, the rate of enhanced digestion was determined from the ratio of the surfactant peak area (surfactant # Pk. Area) to the Rapigest™ surfactant peak area (RG Pk area). Peak area was determined as the sum of all peaks integrated from 8-22 minutes.

The next data set addresses trypsin (Sus scrofa, UniProt P00761). The data set can be described thus: Trypsin activity measured as rate of BAEE cleavage. Type of data set: biochemical. Particulars: standard digestion conditions. An excerpt:
Compound 3116 can be used as an acid-labile surfactant to facilitate the solubilization and denaturation of a protein or peptide. Compound 3116 stabilizes proteases and enhances the proteolysis activity of trypsin. See FIG. 2, which illustrates the effect of compound 3116 on trypsin activity.

The target in data set [3] is Horse myoglobin digested with trypsin (Equus caballus, UniProt P68082). The experiment in a line: One hour digestion of myoglobin with trypsin (HPLC). Type of data set: biochemical. Conditions: for digestion of myoglobin in one hour (in words): trypsin, 3116: 0.01%, 50:1, one hour at 37° C. Here is the method:
For example, digestion of myoglobin using standard protocol requires overnight digestion. […] Horse myoglobin was digested with trypsin at a 50:1 ratio for one hour at 37° C., alone and separately in the presence of 0.01% compound 3116.
The peaks in FIG. 3A and FIG. 3B indicate peptides or partial digestion fragments.

A short description of data set [4]: Solubility of the surfactant. Particulars: for solubility in aqueous solutions (concentration dissolved to): aqueous solution.
The target in data set [5] is T2, Bacteriorhodopsin digested with chymotrypsin (Halobacterium salinarum, UniProt P02945).
T2 sequence (P02945 14-261 limits assumed): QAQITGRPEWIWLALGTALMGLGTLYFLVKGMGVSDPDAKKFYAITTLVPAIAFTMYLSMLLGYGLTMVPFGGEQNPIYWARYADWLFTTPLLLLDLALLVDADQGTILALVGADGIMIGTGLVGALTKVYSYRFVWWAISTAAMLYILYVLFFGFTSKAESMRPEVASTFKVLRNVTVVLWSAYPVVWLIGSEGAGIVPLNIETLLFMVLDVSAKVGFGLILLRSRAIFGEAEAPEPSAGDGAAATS
The data set can be described thus: Bacteriorhodopsin/Chymotrypsin digest, HPLC peak area versus RapiGest control. Type of data set: biochemical. Particulars: 0.025% surfactant. Here is the method: Bacteriorhodopsin (25 μs) was heated with 0.025% Rapigest™ surfactant or the indicated compound of the invention for 5 minutes at 95° C., then digested with chymotrypsin (Sigma) at a 10:1 ratio in 125 μL 50 mM Ammonium bicarbonate for 1 hour at 37° C. After one hour TFA was added to 0.5-2% and the mixtures were incubated at 37° C. or 65° C. for 20 or 30 minutes. Degraded surfactant was removed by centrifugation at 14,000×g for 5 minutes. An aliquot of 50-100 μL of digested protein was analyzed by HPLC as described above.
Compound 3211, 3212, 3224 and Rapigest™ surfactant control for FIG. 13C reactions: Bacteriorhodopsin (25 μs) was solubilized with 0.025% compound of interest for 1-2 minutes at room temperature, then digested with chymotrypsin (Sigma) at a 10:1 ratio in 125 μL 50 mM Ammonium bicarbonate for 1 hour at 37° C. After one hour TFA was added to 0.5-2% and the mixtures were incubated at 37° C. or 65° C. for 20 or 30 minutes. Degraded surfactant was removed by centrifugation at 14,000×g for 5 minutes. An aliquot of 50-100 μL of digested protein was analyzed by HPLC as described above.
as §1

The nature of data set [6]: Hydrolytic stability in 50 mM ammonium bicarbonate (reverse-phase HPLC). Type of data set: physicochemical. On the set-up: key: >>: compound 100% stable over course of experiment. Here is the method: Hydrolytic stability was measured by monitoring the change in retention time of the intact surfactant by reverse-phase HPLC. The ½-life is defined as the time required to reach 50% degradation.

Data set [7] is described as follows: Stability and degradation profile of surfactant 3211 solutions. Type of data set: physicochemical. Here is the method:
FIG. 1 illustrates the degradation profile of a 0.025% solution of surfactant 3211 at 40° C., according to one embodiment.
For example, degradation of surfactant compound 3211 after protein digestion is not required because the surfactant degrades during the digestion process. The stability of a 1% solution of 3211 (10% degradation) is 8 hours at 23° C., 12 days at 4° C., and an estimated >3 years at −20° C. However, the degradation rate of surfactant 3211 increases in a typical protein digestion protocol. […] Less than about 5% of intact surfactant remains after only 2 hours.

The target of data set [8] is T3, beta subunit of mouse ATP synthase (Mus musculus, UniProt P56480).
T3 construct: Total membrane protein from mouse heart was resolved in SDS-polyacrylamide gel; from tissue; host or cells: mouse heart, total membrane protein, 56 kD SDS-PAGE band
T3 sequence (P56480 47-529): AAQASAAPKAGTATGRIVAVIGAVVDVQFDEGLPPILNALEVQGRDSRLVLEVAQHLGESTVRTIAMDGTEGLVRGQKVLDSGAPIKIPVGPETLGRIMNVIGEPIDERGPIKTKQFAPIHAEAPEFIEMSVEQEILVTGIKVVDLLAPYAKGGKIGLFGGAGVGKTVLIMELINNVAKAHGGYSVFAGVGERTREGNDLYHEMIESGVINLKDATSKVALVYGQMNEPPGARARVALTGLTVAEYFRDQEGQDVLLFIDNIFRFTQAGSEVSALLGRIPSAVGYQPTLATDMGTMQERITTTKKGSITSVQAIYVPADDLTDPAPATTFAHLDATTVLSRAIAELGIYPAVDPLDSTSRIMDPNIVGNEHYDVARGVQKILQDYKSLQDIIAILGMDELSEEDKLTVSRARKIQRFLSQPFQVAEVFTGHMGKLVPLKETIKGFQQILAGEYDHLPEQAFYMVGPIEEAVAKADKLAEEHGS
The data set can be described thus: In-gel trypsin digestion of 56 kD band of mouse heart membrane protein, mass spectrometry. It is filed as biochemical. The protocol:
13. Rehydrate for 5 minutes in 20 μL 12 ng/μL Trypsin Gold (in 0.025% surfactant A/50 mM […] AmBic). Overlay with 30 μL of 0.01% surfactant A/50 mM AmBic to cover gel pieces. Incubate 1 hour at 50° C.
Total membrane protein from mouse heart was resolved in SDS-polyacrylamide gel and a single protein band was digested with a conventional digestion protocol (control) and separately with a compound 3211-assisted protocol.
A band of the protein with an approximate MW of 56 kD was excised and digested with trypsin. The digested samples were analyzed by mass spectrometry. […] Asterisks indicate identified peptides for beta subunit of mouse ATP synthase (the major protein in 56 kD band).

The mark [9] stands for this setting: surfactant conc. 0.0025% in 50 mM ammonium bicarbonate.
Setting [10] is: surfactant conc. 0.025% in 50 mM ammonium bicarbonate.
[11] abbreviates: surfactant conc. 0.10% in 50 mM ammonium bicarbonate.
Where [12] appears, read: BR solubilized at room temperature (not boiled), RapiGest control boiled.
[13] abbreviates: 1 hour in-gel digestion with surfactant.

Chain of Horse myoglobin digested with trypsin (P68082 2-154 limits assumed): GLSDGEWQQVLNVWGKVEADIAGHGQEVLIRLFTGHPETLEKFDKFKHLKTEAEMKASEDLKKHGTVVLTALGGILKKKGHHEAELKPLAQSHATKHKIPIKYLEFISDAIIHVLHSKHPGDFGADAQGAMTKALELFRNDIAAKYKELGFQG
T1 sequence (P68082 2-154 limits assumed): as above
Chain of trypsin (P00761 9-231): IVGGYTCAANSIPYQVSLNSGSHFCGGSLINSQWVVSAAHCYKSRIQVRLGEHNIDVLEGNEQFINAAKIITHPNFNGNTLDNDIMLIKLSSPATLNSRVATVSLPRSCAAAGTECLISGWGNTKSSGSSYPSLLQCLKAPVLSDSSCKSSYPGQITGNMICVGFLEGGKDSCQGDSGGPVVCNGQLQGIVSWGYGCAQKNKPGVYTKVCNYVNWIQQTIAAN

For `CCCCCCCCCCCC(C)(C)OC(=O)NCCCS(=O)(=O)O` [Compound 3116], the “time to degradation of 0.01% solution” value in [1] (0.01% solution, 37° C. where stated) is no more than 2 h. Moreover, the “surfactant Pk area/RG Pk area, Myoglobin/Trypsin digest” value in [2] was 0.6. Besides, at trypsin, the “effect on trypsin activity (in words)” value is “stabilized trypsin activity”. For the same compound, the “identifiable peaks in HPLC chromatogram of myoglobin digest” value in data set [3] (0.01% 3116, trypsin 50:1, one hour at 37° C.) is reported as greater than 15. Besides, the “digestion of myoglobin in one hour (in words)” value in data set [3] is listed as “largely digested within one hour”. Also, the “solubility in aqueous solutions (concentration dissolved to)” value in data set [4] is recorded as no less than 0.5%. Also, the “surfactant Pk area/RG Pk area, Bacteriorhodopsin/Chymotrypsin digest” value in data set [5] (BR heated (boiled) with surfactant 5 minutes at 95° C., chymotrypsin 10:1, 1 hour at 37° C., ratio to RapiGest control) was 1.5.

As to `CCCCCCCCCCC(OC(=O)NCCCS(=O)(=O)O)c1ccco1` (centres unmarked) [Compound 3211], the “time to degradation in 0.5% TFA” value in data set [1] (0.5% TFA, 37° C. where stated, 0.1% solution for 3220 and 3266) stood at 15 min. For the same compound, the “time to degradation by boiling without TFA” value in data set [1] (boiling without TFA) came to 5 min. Also, in [1] (room temperature), the “degradation at room temperature (in words)” value is “degrades even at room temperature at a substantial rate”. In [2], the “surfactant Pk area/RG Pk area, Myoglobin/Trypsin digest” value is given as 1.3. The ½-life is 6 h in data set [6] (0.025%/20% AcN); 52 h in data set [6] (0.025%/40% AcN); greater than 100 h in data set [6] (0.025%/60% AcN); “>>” in [6] (0.025%/80% AcN); greater than 100 h in data set [6] (1%/50% AcN); 0.5 h in data set [6] (setting [9]). Further, the ½-life in [6] (setting [10]) turned out to be 1.1 h; in data set [6] (setting [11]), 4.8 h; in [6] (surfactant conc. 1% in 50 mM ammonium bicarbonate) it was 21 h. For the same compound, the “digestion of myoglobin in one hour (in words)” value in data set [3] is on record as “complete digestion”. Further, the “solubility (concentration dissolved to)” value in [4] (in 50 mM ammonium bicarbonate) was 1%. Also, the “surfactant Pk area/RG Pk area, Bacteriorhodopsin/Chymotrypsin digest” value in data set [5] (setting [12]) was determined as 0.9. Further, the intact surfactant remaining result in [7] (0.025% solution at 40° C., after 2 hours) is recorded as “Less than 5%”. Moreover, the “stability of a 1% solution (10% degradation)” value in [7] (1% solution, 4° C.) stood at 12 days; in data set [7] (1% solution, 23° C.), 0.33 days. For the same compound, in [7] (1% solution, −20° C.), the “stability of a 1% solution (10% degradation), estimated” value is greater than 3 years. Moreover, the “increase in sequence coverage versus protocol without surfactant” value in data set [8] was 50%. Further, the “MASCOT score for beta subunit of ATP synthase” value in data set [8] (setting [13]) amounted to 920. In addition, in [8] (setting [13]), the “sequence coverage for beta subunit of ATP synthase” value stood at 75%.

Consider `CCCCCCCCCCCCC(OC(=O)NCCCS(=O)(=O)O)c1ccco1` (centres unmarked) [Compound 3224], for which, in data set [2], the “surfactant Pk area/RG Pk area, Myoglobin/Trypsin digest” value is on record as 1.3. The ½-life in data set [6] (setting [9]) is 1.3 h; in [6] (setting [10]), 8.3 h; in data set [6] (setting [11]), 23 h; in data set [6] (surfactant conc. 0.25% in 50 mM ammonium bicarbonate), 22 h. The “solubility after adding ACN” value in [4] (ACN added to 20%) worked out at 2%. In addition, the “solubility in aqueous solutions (concentration dissolved to)” value in data set [4] is listed as 0.25%. In data set [5] (setting [12]), the “surfactant Pk area/RG Pk area, Bacteriorhodopsin/Chymotrypsin digest” value came out at 0.74.
